Measured values: article doi:10.1101/2023.03.24.534094v2 (biorxiv, 2023)
Where two headings read alike, the source gives them in different places. Blank lines part the entries; values can stand above or below the compound they belong to.

Key:
Test in all cases: biochemical
DMPK1 = molecular target: T1, DMPK1 (Homo sapiens, UniProt Q09013)
T1 sequence (Q09013 1-629): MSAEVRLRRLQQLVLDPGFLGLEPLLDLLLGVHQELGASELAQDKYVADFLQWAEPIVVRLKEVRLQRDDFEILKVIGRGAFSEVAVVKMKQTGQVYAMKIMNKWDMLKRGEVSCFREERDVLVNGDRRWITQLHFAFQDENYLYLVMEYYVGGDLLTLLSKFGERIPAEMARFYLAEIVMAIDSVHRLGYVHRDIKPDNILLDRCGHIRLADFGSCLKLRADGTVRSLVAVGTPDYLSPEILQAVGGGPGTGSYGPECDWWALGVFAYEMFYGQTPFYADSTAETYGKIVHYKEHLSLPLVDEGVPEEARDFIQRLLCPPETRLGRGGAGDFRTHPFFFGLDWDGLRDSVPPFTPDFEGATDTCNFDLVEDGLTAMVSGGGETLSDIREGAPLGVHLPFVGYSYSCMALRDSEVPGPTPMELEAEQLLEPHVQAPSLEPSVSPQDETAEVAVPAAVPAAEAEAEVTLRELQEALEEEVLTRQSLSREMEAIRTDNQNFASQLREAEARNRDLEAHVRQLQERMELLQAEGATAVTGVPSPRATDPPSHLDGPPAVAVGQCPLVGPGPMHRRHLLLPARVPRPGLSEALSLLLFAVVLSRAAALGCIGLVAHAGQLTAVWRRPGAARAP

EpHA2 = EpHA2 (Homo sapiens, UniProt P29317)
MAP2K7 = molecular target: T2, MAP2K7 (Homo sapiens, UniProt O14733)
T2 sequence (O14733 1-419): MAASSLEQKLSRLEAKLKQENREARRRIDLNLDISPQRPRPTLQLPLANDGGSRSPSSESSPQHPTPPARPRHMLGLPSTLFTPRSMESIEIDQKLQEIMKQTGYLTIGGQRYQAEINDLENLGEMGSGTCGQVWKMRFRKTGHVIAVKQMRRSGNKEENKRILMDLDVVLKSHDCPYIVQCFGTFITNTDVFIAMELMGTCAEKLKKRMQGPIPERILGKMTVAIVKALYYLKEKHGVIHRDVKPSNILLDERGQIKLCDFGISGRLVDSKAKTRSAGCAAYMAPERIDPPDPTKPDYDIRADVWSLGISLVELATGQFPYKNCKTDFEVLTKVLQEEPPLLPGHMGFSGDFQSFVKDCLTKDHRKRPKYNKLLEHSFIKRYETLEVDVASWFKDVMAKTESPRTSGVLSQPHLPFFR

MAP3K5 = molecular target: T3, MAP3K5 (Homo sapiens, UniProt Q99683)
T3 sequence (Q99683 1-1374): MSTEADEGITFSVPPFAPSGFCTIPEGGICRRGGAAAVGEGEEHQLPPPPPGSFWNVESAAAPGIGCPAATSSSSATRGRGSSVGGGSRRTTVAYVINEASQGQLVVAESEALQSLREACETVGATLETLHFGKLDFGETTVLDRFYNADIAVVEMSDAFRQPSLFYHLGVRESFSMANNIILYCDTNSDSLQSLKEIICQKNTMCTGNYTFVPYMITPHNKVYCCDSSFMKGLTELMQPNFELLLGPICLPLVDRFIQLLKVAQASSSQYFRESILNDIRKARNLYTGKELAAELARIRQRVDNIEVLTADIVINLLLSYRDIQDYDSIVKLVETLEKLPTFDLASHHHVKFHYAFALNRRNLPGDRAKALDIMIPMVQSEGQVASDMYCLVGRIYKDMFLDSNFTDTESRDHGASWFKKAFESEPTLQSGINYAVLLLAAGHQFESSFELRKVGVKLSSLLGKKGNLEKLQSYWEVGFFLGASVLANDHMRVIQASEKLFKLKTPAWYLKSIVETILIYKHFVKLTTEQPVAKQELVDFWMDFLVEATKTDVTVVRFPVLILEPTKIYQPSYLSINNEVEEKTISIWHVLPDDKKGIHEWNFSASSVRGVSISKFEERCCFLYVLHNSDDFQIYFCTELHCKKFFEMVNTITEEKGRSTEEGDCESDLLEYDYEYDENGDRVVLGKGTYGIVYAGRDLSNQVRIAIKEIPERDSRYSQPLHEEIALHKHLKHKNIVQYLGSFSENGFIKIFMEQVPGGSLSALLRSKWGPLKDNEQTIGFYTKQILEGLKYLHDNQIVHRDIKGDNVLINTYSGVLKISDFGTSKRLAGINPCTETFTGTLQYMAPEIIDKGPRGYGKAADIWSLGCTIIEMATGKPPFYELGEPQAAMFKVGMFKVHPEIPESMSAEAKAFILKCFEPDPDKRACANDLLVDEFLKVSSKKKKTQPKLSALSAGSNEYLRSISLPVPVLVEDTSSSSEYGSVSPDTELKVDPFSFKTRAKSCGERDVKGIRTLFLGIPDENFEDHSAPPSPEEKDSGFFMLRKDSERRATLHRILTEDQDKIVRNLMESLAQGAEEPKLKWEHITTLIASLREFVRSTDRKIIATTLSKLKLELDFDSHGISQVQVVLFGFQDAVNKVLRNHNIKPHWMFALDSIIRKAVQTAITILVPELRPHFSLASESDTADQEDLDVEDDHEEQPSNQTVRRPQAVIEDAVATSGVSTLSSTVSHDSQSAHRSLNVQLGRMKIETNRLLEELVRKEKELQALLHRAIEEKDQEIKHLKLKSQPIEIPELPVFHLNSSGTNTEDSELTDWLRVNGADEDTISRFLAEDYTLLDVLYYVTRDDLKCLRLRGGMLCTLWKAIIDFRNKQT

NEK7 = NEK7 (Homo sapiens, UniProt Q8TDX7)
Sequence of NEK7 (Q8TDX7 whole entry): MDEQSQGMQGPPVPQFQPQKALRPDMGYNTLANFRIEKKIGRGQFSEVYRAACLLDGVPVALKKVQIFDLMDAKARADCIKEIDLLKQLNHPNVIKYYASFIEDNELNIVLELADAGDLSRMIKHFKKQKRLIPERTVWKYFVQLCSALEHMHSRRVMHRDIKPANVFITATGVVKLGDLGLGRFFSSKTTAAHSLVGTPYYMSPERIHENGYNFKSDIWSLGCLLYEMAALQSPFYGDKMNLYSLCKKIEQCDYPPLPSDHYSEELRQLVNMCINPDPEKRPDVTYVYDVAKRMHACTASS

Sequence of EpHA2 (P29317 whole entry): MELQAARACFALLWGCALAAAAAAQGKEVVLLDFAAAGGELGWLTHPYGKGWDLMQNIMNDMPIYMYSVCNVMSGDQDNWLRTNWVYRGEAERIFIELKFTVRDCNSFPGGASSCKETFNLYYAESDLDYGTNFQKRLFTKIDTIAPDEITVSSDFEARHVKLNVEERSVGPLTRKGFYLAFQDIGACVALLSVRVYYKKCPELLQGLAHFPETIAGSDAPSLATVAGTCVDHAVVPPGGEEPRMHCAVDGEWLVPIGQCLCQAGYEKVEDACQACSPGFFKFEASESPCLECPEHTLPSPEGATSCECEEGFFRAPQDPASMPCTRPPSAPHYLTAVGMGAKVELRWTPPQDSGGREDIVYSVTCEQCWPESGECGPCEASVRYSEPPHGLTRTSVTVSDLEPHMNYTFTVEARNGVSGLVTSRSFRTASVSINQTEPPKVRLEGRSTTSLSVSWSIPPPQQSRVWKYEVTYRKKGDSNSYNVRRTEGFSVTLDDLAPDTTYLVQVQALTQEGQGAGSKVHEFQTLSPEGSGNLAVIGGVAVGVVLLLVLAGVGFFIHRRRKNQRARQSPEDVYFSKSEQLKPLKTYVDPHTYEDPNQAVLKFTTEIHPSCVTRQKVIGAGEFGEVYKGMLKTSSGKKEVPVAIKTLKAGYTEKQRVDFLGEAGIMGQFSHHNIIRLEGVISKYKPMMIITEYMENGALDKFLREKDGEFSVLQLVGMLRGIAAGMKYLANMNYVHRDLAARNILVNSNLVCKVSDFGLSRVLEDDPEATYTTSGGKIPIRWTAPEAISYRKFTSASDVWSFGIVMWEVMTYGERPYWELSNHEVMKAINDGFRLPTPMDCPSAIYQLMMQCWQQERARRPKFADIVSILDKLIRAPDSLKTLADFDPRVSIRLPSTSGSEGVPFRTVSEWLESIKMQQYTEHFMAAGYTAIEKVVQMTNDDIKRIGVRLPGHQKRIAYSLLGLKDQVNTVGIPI

ΔTm at 10 µM (DMPK1; read-out: dTm 8): 1.3 °C | ΔTm at 10 µM (EpHA2; read-out: dTm 8): 7.1 °C | ΔTm at 10 µM (MAP2K7; read-out: dTm 8): 0.6 °C | ΔTm at 10 µM (MAP3K5; read-out: dTm 8): 1.5 °C | ΔTm at 10 µM (NEK7; read-out: dTm 8): -0.2 °C
Compound: CNc1ncc2cc(-c3cc(Cl)ccc3Cl)c(=O)n(CCCCN)c2n1 [compound 8, 8-(4-Aminobutyl)-6-(2,5-dichlorophenyl)-2-(methylamino)pyrido[2,3-d]pyrimidin-7(8H)-one]

ΔTm at 10 µM (DMPK1; read-out: dTm 11): 1.7 °C | ΔTm at 10 µM (EpHA2; read-out: dTm 11): 6.4 °C | ΔTm at 10 µM (MAP2K7; read-out: dTm 11): 0.5 °C | ΔTm at 10 µM (MAP3K5; read-out: dTm 11): 1.6 °C | ΔTm at 10 µM (NEK7; read-out: dTm 11): -0.2 °C
Compound: CNc1ncc2cc(-c3cc(Br)ccc3Br)c(=O)n(CCCCN)c2n1 [compound 11, 8-(4-Aminobutyl)-6-(2,5-dibromophenyl)-2-(methylamino)pyrido[2,3-d]pyrimidin-7(8H)-one]

ΔTm at 10 µM (DMPK1; read-out: dTm 9): 1.4 °C | ΔTm at 10 µM (EpHA2; read-out: dTm 9): 4.8 °C | ΔTm at 10 µM (MAP2K7; read-out: dTm 9): 0.4 °C | ΔTm at 10 µM (MAP3K5; read-out: dTm 9): 0.4 °C | ΔTm at 10 µM (NEK7; read-out: dTm 9): 0.4 °C
Compound: CNc1ncc2cc(-c3cc(C(F)(F)F)ccc3Cl)c(=O)n(CCCCN)c2n1 [compound 9, 8-(4-Aminobutyl)-6-(2-chloro-5-(trifluoromethyl)phenyl)-2-(methylamino)pyrido[2,3-d]pyrimidin-7(8H)-one]

ΔTm at 10 µM (DMPK1; read-out: dTm 10): 1.8 °C | ΔTm at 10 µM (EpHA2; read-out: dTm 10): 7.4 °C | ΔTm at 10 µM (MAP2K7; read-out: dTm 10): 0.4 °C | ΔTm at 10 µM (MAP3K5; read-out: dTm 10): 1.7 °C | ΔTm at 10 µM (NEK7; read-out: dTm 10): -0.5 °C
Compound: CNc1ncc2cc(-c3cc(Cl)ccc3Br)c(=O)n(CCCCN)c2n1 [compound 10, 8-(4-Aminobutyl)-6-(2-bromo-5-chlorophenyl)-2-(methylamino)pyrido[2,3-d]pyrimidin-7(8H)-one]

ΔTm at 10 µM (DMPK1; read-out: dTm 12): -0.1 °C | ΔTm at 10 µM (EpHA2; read-out: dTm 12): 3.9 °C | ΔTm at 10 µM (MAP2K7; read-out: dTm 12): 1.7 °C | ΔTm at 10 µM (MAP3K5; read-out: dTm 12): 9.1 °C | ΔTm at 10 µM (NEK7; read-out: dTm 12): -2.1 °C
Compound: CNc1ncc2cc(-c3cc(F)c(-c4cccc(C)n4)cc3F)c(=O)n(CCCCN)c2n1 [compound 12, 8-(4-Aminobutyl)-6-(2,5-difluoro-4-(6-methylpyridin-2-yl)phenyl)-2-(methylamino)pyrido[2,3-d]pyrimidin-7(8H)-one]
